Data published in ChEMBL document CHEMBL4024712, “Synthesis, stability and mechanistic studies of potent anticryptococcal hexapeptides” (Eur J Med Chem, 2017).
Converted amounts (≈) assume the structure as drawn. The source made the active and inactive calls. No cut-off for these calls is given here. Non-standard residues stand in square brackets, D forms with d. Residues, ends and D or L forms follow the SMILES beside them. His(τ-Bzl) = N[C@@H](Cc1cn(Cc2ccccc2)cn1)C(=O)O; Phe(4-NH2) = Nc1ccc(C[C@H](N)C(=O)O)cc1; Phe(4-Me) = Cc1ccc(C[C@H](N)C(=O)O)cc1; 1Nal = N[C@@H](Cc1cccc2ccccc12)C(=O)O; Bta = N[C@@H](Cc1csc2ccccc12)C(=O)O; Cha = N[C@@H](CC1CCCCC1)C(=O)O; Orn = NCCC[C@H](N)C(=O)O

Key:
Candida albicans [1] = experiment: Antifungal activity against Candida albicans ATCC 90028 after 18 to 24 hrs by Alamar blue assay; assay type: functional; conditions: for MIC: Candida albicans, ATCC 90028
Staphylococcus aureus [2] = experiment: Anti-bacterial activity against Staphylococcus aureus ATCC 29213 by CLSI method; assay type: functional
Pseudomonas aeruginosa = experiment: Anti-bacterial activity against Pseudomonas aeruginosa ATCC 27853 by CLSI method; assay type: functional
Vero = experiment: Cytotoxicity against African green monkey Vero cells up to 10 ug/ml after 48 hrs by neutral red dye based assay; assay type: cell-based; conditions: chlorocebus sabaeus
Nakaseomyces glabratus [3] = experiment: Fungicidal activity against Candida glabrata ATCC 90030 after 18 to 24 hrs by Alamar blue assay; assay type: functional
Candida albicans [4] = experiment: Fungicidal activity against Candida albicans ATCC 90028 after 18 to 24 hrs by Alamar blue assay; assay type: functional
[5] = tested on: Mycobacterium intracellulare; experiment: Anti-bacterial activity against Mycobacterium intracellulare ATCC 23068 after 68 to 72 hrs by Alamar blue assay; assay type: functional, cell-based
Staphylococcus aureus [6] = experiment: Bactericidal activity against methicillin-resistant Staphylococcus aureus ATCC 33591 by CLSI method; assay type: functional
Cryptococcus neoformans [7] = experiment: Antifungal activity against Cryptococcus neoformans ATCC 90113 after 68 to 72 hrs by Alamar blue assay; assay type: functional
Staphylococcus aureus [8] = experiment: Bactericidal activity against Staphylococcus aureus ATCC 29213 by CLSI method; assay type: functional
Staphylococcus aureus [9] = experiment: Anti-bacterial activity against methicillin-resistant Staphylococcus aureus ATCC 33591 by CLSI method; assay type: functional
Nakaseomyces glabratus [10] = experiment: Antifungal activity against Candida glabrata ATCC 90030 after 18 to 24 hrs by Alamar blue assay; assay type: functional
Aspergillus fumigatus [11] = experiment: Fungicidal activity against Aspergillus fumigatus ATCC 90906 after 68 to 72 hrs by Alamar blue assay; assay type: functional
Pichia kudriavzevii [12] = experiment: Antifungal activity against Candida krusei ATCC 6258 after 18 to 24 hrs by Alamar blue assay; assay type: functional
Cryptococcus neoformans [13] = experiment: Fungicidal activity against Cryptococcus neoformans ATCC 90113 after 68 to 72 hrs by Alamar blue assay; assay type: functional
Aspergillus fumigatus [14] = experiment: Antifungal activity against Aspergillus fumigatus ATCC 90906 after 68 to 72 hrs by Alamar blue assay; assay type: functional
Escherichia coli [15] = experiment: Bactericidal activity against Escherichia coli ATCC 35218 by CLSI method; assay type: functional
Pichia kudriavzevii [16] = experiment: Fungicidal activity against Candida krusei ATCC 6258 after 18 to 24 hrs by Alamar blue assay; assay type: functional
Escherichia coli [17] = experiment: Anti-bacterial activity against Escherichia coli ATCC 35218 by CLSI method; assay type: functional; conditions: Escherichia coli, ATCC 35218; for IC50: read-out: IC50
[18] = Selectivity index ratio of cytotoxic concentration against African green monkey Vero cells to IC50 for Cryptococcus neoformans ATCC 90113; assay type: toxicity; conditions: read-out: Selectivity Index
Lipid bilayer [19] = experiment: Binding affinity to EYPC/cholesterol small unilamellar vesicles at 0.1 uM by tryptophan fluorescence quenching assay; assay type: ADME
Lipid bilayer [20] = experiment: Binding affinity to EYPC/EYPG small unilamellar vesicles at 0.1 uM by tryptophan fluorescence quenching assay
[21] = Proteolytic stability assessed as trypsin (unknown origin)-mediated compound hydrolysis at compound to trypsin ratio of 0.5 to […] measured after 24 hrs by RP-HPLC method; assay type: ADME; conditions: human
Cryptococcus neoformans [22] = experiment: Induction of cell lysis in Cryptococcus neoformans ATCC 90113 biofilm assessed as corrugated cells at MIC after 1 hr by osmium tetroxide staining based scanning electron microscopic method; assay type: functional
Cryptococcus neoformans [23] = experiment: Induction of cell lysis in Cryptococcus neoformans ATCC 90113 biofilm assessed as loss of cell wall at MIC after 1 hr by photungstic acid/ammonium molybdate/uranyl acetatebased scanning based transmission electron microscopic method; assay type: functional
Cryptococcus neoformans [24] = experiment: Induction of cell lysis in Cryptococcus neoformans ATCC 90113 biofilm assessed as cell perturbation at MIC after 1 hr by osmium tetroxide staining based scanning electron microscopic method; assay type: functional
[25] = Staphylococcus aureus, ATCC 29213
[26] = Staphylococcus aureus, ATCC 33591
[27] = Nakaseomyces glabratus, ATCC 90030
[28] = Aspergillus fumigatus, ATCC 90906
[29] = Pichia kudriavzevii, ATCC 6258, read-out: IC50

Row | Compound | MIC (Candida albicans [1]) [µg/mL] | MIC (Staphylococcus aureus [2]; [25]) [µg/mL] | IC50 (Pseudomonas aeruginosa) | Activity (Vero) | MFC (Nakaseomyces glabratus [3]) [µg/mL] | MFC (Candida albicans [4]) [µg/mL] | IC50 [5] | MBC (Staphylococcus aureus [6]) [µg/mL] | MIC (Cryptococcus neoformans [7]) [µg/mL] | MBC (Staphylococcus aureus [8]) [µg/mL] | MIC (Staphylococcus aureus [9]; [26]) [µg/mL] | MIC (Nakaseomyces glabratus [10]; [27]) [µg/mL] | MFC (Aspergillus fumigatus [11]) [µg/mL] | MIC (Pichia kudriavzevii [12]; Pichia kudriavzevii, ATCC 6258) [µg/mL] | MFC (Cryptococcus neoformans [13]) [µg/mL] | MIC (Aspergillus fumigatus [14]; [28]) [µg/mL] | MBC (Escherichia coli [15]) [µg/mL] | MFC (Pichia kudriavzevii [16]) [µg/mL] | IC50 (Escherichia coli [17]) [µg/mL] | IC50 (Nakaseomyces glabratus [10]) | also measured
1 | NCCC[C@H](N)C(=O)N[C@H](Cc1c[nH]c2ccccc12)C(=O)N[C@@H](CC1CCCCC1)C(=O)N[C@@H](Cc1cccc2ccccc12)C(=O)N[C@H](Cc1ccccc1)C(=O)N[C@@H](Cc1cn(Cc2ccccc2)cn1)C(N)=O (H-[Orn][dW][Cha][1Nal][dF][His(τ-Bzl)]-NH2) | 20 (≈ 19.2 µM) | 10 (≈ 9.59 µM) | Not Active | Non-Toxic | 20 (≈ 19.2 µM) | 20 (≈ 19.2 µM) | Not Active | 20 (≈ 19.2 µM) | 2.5 (≈ 2.4 µM) | 10 (≈ 9.59 µM) | 10 (≈ 9.59 µM) | 20 (≈ 19.2 µM) | 20 (≈ 19.2 µM) | 10 (≈ 9.59 µM) | – | – | – | – | – | – | –
2 | NCCC[C@H](N)C(=O)N[C@H](Cc1c[nH]c2ccccc12)C(=O)N[C@@H](CC1CCCCC1)C(=O)N[C@@H](Cc1csc2ccccc12)C(=O)N[C@H](Cc1ccccc1)C(=O)N[C@@H](Cc1cn(Cc2ccccc2)cn1)C(N)=O (H-[Orn][dW][Cha][Bta][dF][His(τ-Bzl)]-NH2) | 10 (≈ 9.54 µM) | – | – | Non-Toxic | 10 (≈ 9.54 µM) | – | Not Active | 20 (≈ 19.1 µM) | – | 10 (≈ 9.54 µM) | 10 (≈ 9.54 µM) | 10 (≈ 9.54 µM) | 10 (≈ 9.54 µM) | 10 (≈ 9.54 µM) | 1.25 (≈ 1.19 µM) | 10 (≈ 9.54 µM) | 20 (≈ 19.1 µM) | 10 (≈ 9.54 µM) | – | – | IC50 (Pichia kudriavzevii [12]; [29]): 6.51 µg/mL (≈ 6.21 µM)
3 | NCCC[C@H](N)C(=O)N[C@H](Cc1c[nH]c2ccccc12)C(=O)N[C@@H](CC1CCCCC1)C(=O)N[C@@H](CC1CCCCC1)C(=O)N[C@H](Cc1ccccc1)C(=O)N[C@@H](Cc1cn(Cc2ccccc2)cn1)C(N)=O (H-[Orn][dW][Cha][Cha][dF][His(τ-Bzl)]-NH2) | 10 (≈ 10 µM) | 10 (≈ 10 µM) | Not Active | Non-Toxic | – | 10 (≈ 10 µM) | – | 20 (≈ 20 µM) | 1.25 (≈ 1.25 µM) | – | – | – | 20 (≈ 20 µM) | 10 (≈ 10 µM) | – | 20 (≈ 20 µM) | 20 (≈ 20 µM) | 10 (≈ 10 µM) | 10 (≈ 10 µM) | Not Active | MIC (Escherichia coli [17]): 20 µg/mL (≈ 20 µM)
4 | Cc1ccc(C[C@H](NC(=O)[C@@H](Cc2ccccc2)NC(=O)[C@@H](Cc2c[nH]c3ccccc23)NC(=O)[C@@H](N)CCCN)C(=O)N[C@H](Cc2ccccc2)C(=O)N[C@@H](CCCN)C(N)=O)cc1 (H-[Orn][dW][dF][Phe(4-Me)][dF][Orn]-NH2) | – | – | Not Active | Non-Toxic | – | – | Not Active | – | 0.63 (≈ 0.71 µM) | – | – | – | – | 20 (≈ 22.5 µM) | 0.63 (≈ 0.71 µM) | – | – | 20 (≈ 22.5 µM) | 16.5 (≈ 18.6 µM) | Not Active | IC50 (Candida albicans [1]): Not Active; IC50 (Staphylococcus aureus [2]): Not Active; selectivity ratio [18]: 21 to 25; Activity (Lipid bilayer [19]): Non-Toxic; Activity (Lipid bilayer [20]): Active; IC50 (Aspergillus fumigatus [14]): Not Active; IC50 (Cryptococcus neoformans [7]): 0.46 µg/mL (≈ 0.519 µM); IC50 (Staphylococcus aureus [9]): Not Active; Stability [21]: Stable; IC50 (Pichia kudriavzevii [12]; [29]): 15.5 µg/mL (≈ 17.5 µM)
5 | Cc1ccc(C[C@H](NC(=O)[C@@H](Cc2ccccc2)NC(=O)[C@@H](Cc2c[nH]c3ccccc23)NC(=O)[C@@H](N)CCCN)C(=O)N[C@H](Cc2ccccc2)C(=O)N[C@@H](Cc2ccc(N)cc2)C(N)=O)cc1 (H-[Orn][dW][dF][Phe(4-Me)][dF][Phe(4-NH2)]-NH2) | – | – | Not Active | Non-Toxic | – | – | Not Active | – | 5 (≈ 5.35 µM) | – | – | – | – | – | 5 (≈ 5.35 µM) | – | – | – | 19.5 (≈ 20.9 µM) | Not Active | IC50 (Candida albicans [1]): Not Active; IC50 (Staphylococcus aureus [2]; Staphylococcus aureus, ATCC 29213, read-out: IC50): > 20 µg/mL; Activity (Lipid bilayer [19]): Non-Toxic; Activity (Lipid bilayer [20]): Active; IC50 (Aspergillus fumigatus [14]): Not Active; Activity (Cryptococcus neoformans [22]): Active; IC50 (Cryptococcus neoformans [7]): 4.73 µg/mL (≈ 5.06 µM); IC50 (Staphylococcus aureus [9]; Staphylococcus aureus, ATCC 33591, read-out: IC50): > 20 µg/mL; Activity (Cryptococcus neoformans [23]): Active; Activity (Cryptococcus neoformans [24]): Active; IC50 (Pichia kudriavzevii [12]): Not Active
6 | C[C@@H]1[C@H](O)[C@@H](C)/C=C/C=C/C=C/C=C/C=C/C=C/C=C/[C@H](O[C@@H]2O[C@H](C)[C@@H](O)[C@H](N)[C@@H]2O)C[C@@H]2O[C@](O)(C[C@@H](O)C[C@@H](O)[C@H](O)CC[C@@H](O)C[C@@H](O)CC(=O)O[C@H]1C)C[C@H](O)[C@H]2C(=O)O [AMPHOTERICIN B] | – | – | – | – | – | – | – | – | – | – | – | 0.63 (≈ 0.682 µM) | 5 (≈ 5.41 µM) | – | – | – | – | – | – | – | IC50 (Aspergillus fumigatus [14]; Aspergillus fumigatus, ATCC 90906, read-out: IC50): 1.2 µg/mL (≈ 1.3 µM); IC50 (Nakaseomyces glabratus [10]; Nakaseomyces glabratus, ATCC 90030, read-out: IC50): 0.34 µg/mL (≈ 0.368 µM)
